Test results: patent US12378294B2, “IL-4 derived peptides for use in the treatment of obesity” (SERODUS APS, priority 2022, dated 2025)
Where “and” joins values, the source holds several entries; their conditions need not be identical. Equal values may be shown once. Where no end group is shown, it is not given here.

How the values were obtained:
type I IL-4R = molecular target: T1, type I IL-4R (Homo sapiens, UniProt P24394); conditions: cited from earlier work
T1 sequence (P24394 26-825): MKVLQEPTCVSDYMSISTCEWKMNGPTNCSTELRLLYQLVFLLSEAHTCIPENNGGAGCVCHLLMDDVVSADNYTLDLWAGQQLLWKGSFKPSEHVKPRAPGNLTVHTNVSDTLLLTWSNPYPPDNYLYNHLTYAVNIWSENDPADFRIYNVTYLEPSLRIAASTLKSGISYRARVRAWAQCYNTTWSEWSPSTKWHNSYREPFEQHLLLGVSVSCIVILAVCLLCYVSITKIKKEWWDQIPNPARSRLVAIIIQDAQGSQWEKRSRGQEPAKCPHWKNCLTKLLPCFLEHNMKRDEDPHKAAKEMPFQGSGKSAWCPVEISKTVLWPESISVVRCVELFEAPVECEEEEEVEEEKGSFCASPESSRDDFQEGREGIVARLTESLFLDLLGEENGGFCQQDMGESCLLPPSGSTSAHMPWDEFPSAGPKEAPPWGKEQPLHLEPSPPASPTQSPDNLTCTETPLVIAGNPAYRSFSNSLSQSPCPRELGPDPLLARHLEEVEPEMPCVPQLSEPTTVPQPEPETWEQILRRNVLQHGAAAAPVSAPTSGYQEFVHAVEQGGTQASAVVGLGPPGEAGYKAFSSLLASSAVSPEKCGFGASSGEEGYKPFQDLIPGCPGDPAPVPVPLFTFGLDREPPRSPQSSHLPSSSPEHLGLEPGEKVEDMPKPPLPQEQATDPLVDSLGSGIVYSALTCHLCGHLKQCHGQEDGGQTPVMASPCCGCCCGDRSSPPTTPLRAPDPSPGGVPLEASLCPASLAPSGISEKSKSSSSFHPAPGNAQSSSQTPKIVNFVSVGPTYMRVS

type II IL-4R = molecular target: T2, type II IL-4R (Homo sapiens, UniProt P24394); conditions: cited from earlier work
T2 sequence (P24394 26-825): T1 sequence (P24394 26-825)

macrophages = conditions: cited from earlier work
IL-4 receptors = molecular target: T3, IL-4 receptors (Homo sapiens, UniProt P24394); conditions: cited from earlier work
T3 sequence (P24394 26-825): T1 sequence (P24394 26-825)

[1] = system: female mice (BKS.Cg-Dock7m+/+Leptin db/db BLKS); assay: Effect of an IL-4 derived peptide on body weight in db/db mice; assay type: in vivo; conditions: for Effect on weight / weight gain compared to vehicle: treatment group vs vehicle/placebo group, 77 days s.c. once daily
Method: 30 female mice (BKS.Cg-Dock7m+/+Leptin db/db BLKS, 5 weeks of age) were transferred to the Gubra Research animal unit in Denmark. Throughout the habituation and study period, the animals were housed in a light-, temperature-, and -humidity-controlled room with free access to food and water. All animal experiments were conducted in accordance with Gubra bioethical guidelines, which are fully compliant with internationally accepted principles for the care and use of laboratory animals. The body weight of the animals was recorded at the start of the study (baseline), on day 13, day 27, day 34, day 43, day 60 and day 77 (termination of study).
Compound A was prepared using standard solid phase peptide synthesis (SPPS) procedures. Compound A was provided by Phlogo ApS, Copenhagen, Denmark (10 mg/ml miliQ water diluted to the dose formulations). Vehicle was miliQ:PBS 1:5.
The mice were randomized into a vehicle group (n=15) and a 10 mg/kg Compound A (n=15). The compound as well as the vehicle was administered subcutaneously once daily. On day 27, the dose was lowered to 5 mg/kg Compound A (n=15), and on day 43, the dose was lowered to 2.5 mg/kg Compound A (n=15).

AQFHRHKQLIRFLKRA [SEQ ID NO:1, 16-residue IL-4 derived peptide, variant of AA71-AA86 of IL-4]
Activity on type I IL-4R (type I IL-4R): high affinity partial agonist
Activity on type II IL-4R (type II IL-4R): antagonist
Macrophage activation (macrophages): inhibiting macrophage activation
Binding to the IL-4 receptors (IL-4 receptors): capable of binding to the IL-4 receptors

Compound A: dimer of SEQ ID NO:1 (AQFHRHKQLIRFLKRA) connected through a linker (lysine-beta-alanine) at the C-terminals (also: dimer of two chains joined at the C-termini through a Lys-βAla linker)
Δ Weight ([1]; individual animals 1-15 of treatment group, day 77 minus baseline, s.c. once daily, 10 then 5 then 2.5 mg/kg): 1.80 g and -1.60 g and 7.30 g and 4.40 g and 4.50 g and 2.70 g and -1.90 g and 8.00 g and 4.20 g and 11.20 g and 11.40 g and 3.20 g and -1.30 g and 0.90 g and 1.40 g
Weight at day 77 ([1]; individual animals 1-15 of treatment group, s.c. once daily, 10 mg/kg, lowered to 5 mg/kg on day 27 and 2.5 mg/kg on day 43, day 77): 54.30 g (2×) and 47.30 g and 48.40 g and 52.50 g and 59.10 g and 47.60 g and 37.50 g and 57.30 g and 51.80 g and 58.10 g and 59.40 g and 52.40 g and 49.20 g and 49.40 g
Δ Weight (g), mean ([1]; mean of treatment group (n=15), baseline to day 77, s.c. once daily, 10 then 5 then 2.5 mg/kg, placebo mean 5.76): 3.51 g
Weight at day 77 (g), mean ([1]; mean of treatment group (n=15), s.c. once daily, 10 then 5 then 2.5 mg/kg, placebo mean 50.64): 48.66 g
Weight increase during the study period ([1]; treatment group average, baseline to day 77, placebo 12.8%): 7.8%
Effect on weight / weight gain compared to vehicle [1]: significantly decreased the weight
Effect on weight / weight gain compared to vehicle ([1]; listed as compound A): decreased the weight gain
